Patent US6572788B2, “Amine oxide wood preservatives” (Lonza, Inc., priority 2000, dated 2003)
Each block holds one compound with its values, some of them ahead of it.

Columns and labels:
Decay = assay: Field stake test (AWPA E7), southern yellow pine stakes in ground: decay; settings: 10 stakes, 10 = all stakes intact and free of decay, 0 = completely decayed
Protocol: (§1) 40″ by ¾″ by ¾″ pieces of southern yellow pine lumber were treated with the aqueous solution prepared in Example 1 according to the procedure described in the American Wood Preservers' Association test method E7, which is hereby incorporated by reference. The procedure is generally as follows. The southern yellow pine lumber pieces were placed in a pressure treating cylinder for about 30 minutes at about −90 kPa, injected with the aqueous solution, and pressurized to about 800 kPa for about 30 minutes. The pressure was released by the addition of air and the solution was drained.
(§2) This procedure was repeated with aqueous solutions containing 0.5 or 1.0% by weight of copper chromium arsenate (CCA) and aqueous solutions containing 0.5, 1.0, or 1.5% by weight of didecyl dimethyl ammonium chloride (DDAC).
(§3) After 11 months, the stakes were observed.

stains, molds, and fungi [1] = assay: Wood preserving efficacy on freshly cut green chestnut oak (dip treatment); set-up: scale not given here
stains, molds, and fungi [2] = assay: Wood preserving efficacy on freshly cut tulip wood (dip treatment); note: key: 4 - Clean with no visible stain or mold; 3 - Trace amount of white/black fungal growth; 2 - Black and/or white fungal growth visible on all faces and ends; 1 - Heavy fungal growth
Protocol: The wood preserving efficacy of each aqueous test solution in Table 17 below was tested on freshly cut tulip wood (also known as Tulip-Popular, Yellow Popular, and Liriodendron tulipfera L.) as follows. All percentages in Table 17 are by weight. Pieces of tulip wood cut from a 4″ debarked branch were cut into pieces. Each piece was then split into 4 sections. Each section was dipped into the test solution for about 1 minute and blotted with a paper towel to remove excess liquid. The sections were sealed in a clear plastic bag and stored at ambient conditions. The sections were observed after 1, 3, 7, and 11 weeks for the growth of stains, molds, and fungi. The aqueous test solutions were prepared by mixing the active ingredient with water.

Termite = assay: Field stake test (AWPA E7), southern yellow pine stakes in ground: termite attack; settings: 10 stakes, 10 = free of termite attack, 0 = completely attacked
Protocol: as §1, §2, §3

stains, molds, and fungi [3] = assay: Wood preserving efficacy on freshly cut beech wood (dip treatment); settings: beech wood pieces (Example 15); note: key: 4 - Clean with no visible stain or mold; 3 - Trace amount of white/black fungal growth; 2 - Black and/or white fungal growth visible on all faces and ends; 1 - Heavy fungal growth
Protocol: The wood preserving efficacy of each aqueous test solution in Table 18 below was tested on freshly cut beech wood (Fagus grandifolia Ehrh.) as follows. All percentages in Table 18 are by weight. A 1″ branch of a beech tree was split into two pieces. The bark was left on the pieces. Each piece was dipped into the test solution for about 1 minute and blotted with a paper towel to remove excess liquid. […] The aqueous test solutions were prepared by mixing the active ingredient with water.

stains, molds, and fungi [4] = assay: Wood preserving efficacy on freshly cut white birch wood (dip treatment, sealed bag); set-up: key: 4 - Clean with no visible stain or mold; 3 - Trace amount of white/black fungal growth; 2 - Black and/or white fungal growth visible on all faces and ends; 1 - Heavy fungal growth
Protocol: The wood preserving efficacy of each aqueous test solution in Table 1 below was tested on freshly cut white birch wood as follows. All percentages in Table 1 are by weight. A branch of white birch tree measuring about 3 inches in diameter was cut into pieces about 6 inch in length. Each piece was then split into 4 sections. Each section was dipped into the test solution for about 1 minute and blotted with a paper towel to remove excess liquid. The sections were sealed in a clear plastic bag and stored at ambient conditions. The sections were observed after 1, 3, 7, and 12 weeks for the growth of stains, molds, and fungi. The aqueous test solutions were prepared by mixing the active ingredient with water.

[5] = system: Trametes versicolor (T. versicolor), a white rot fungus; assay: Agar plate method, fungus growth inhibition; format: cell-based; settings: 50% retardation of growth
Protocol: (§4) The efficacy of aqueous solutions of amine oxides and didecyldimethyl ammonium chloride to inhibit fungus growth was evaluated by the agar plate method known in the art. […] The fungi tested were Trametes versicolor (T. versicolor), a white rot fungus; Gloeophyllum trabeum (G. trabeum), a brown rot fungus which is tolerant of arsenic and phenolic type wood preservatives; Poria placenta (P. placenta), a brown rot fungus which is tolerant to copper in wood preservatives; Lentinus lepideus (L. lepideus), a brown rot fungus which is tolerant to creosote; Coniophora puteana (C. puteana), a brown rot fungus; and Chaetomium globsum (C. globsum), a soft rot fungus.

[6] = system: Chaetomium globsum (C. globsum), a soft rot fungus; assay: Agar plate method, fungus growth inhibition; format: cell-based
Protocol: as §4

[7] = system: Poria placenta (P. placenta), a brown rot fungus; assay: Agar plate method, fungus growth inhibition; format: cell-based
Protocol: as §4

[8] = system: Gloeophyllum trabeum (G. trabeum), a brown rot fungus; assay: Agar plate method, fungus growth inhibition; format: cell-based
Protocol: as §4

[9] = system: T. versicolor (white rot fungi); assay: Agar dilution plate method, wood rot fungi; format: cell-based; settings: T. versicolor, 100% growth retardation, Table 14
Protocol: (§5) The efficacy of the aqueous amine oxide solutions in Table 14 at various concentrations against the wood rot fungi T. versicolor (white rot fungi), G. trabeum (brown rot fungi), P. placenta (brown rot fungi), and C. globosum (soft rot decay fungi) were determined using the agar dilution plate method well known in the art. […] The percent retardation of the fungi was determined by the percentage change in the diameter of the fungi on the agar plate (i.e. Percent Retardation=((Diameter of Control)−(Diameter of Treated Fungi))/(Diameter of Control)*100%).

[10] = system: G. trabeum (brown rot fungi); assay: Agar dilution plate method, wood rot fungi; format: cell-based; settings: G. trabeum, 100% growth retardation, Table 14
Protocol: as §5

[11] = system: C. globosum (soft rot decay fungi); assay: Agar dilution plate method, wood rot fungi; format: cell-based; settings: C. globosum, 100% growth retardation, Table 14
Protocol: as §5

[12] = system: P. placenta (brown rot fungi); assay: Agar dilution plate method, wood rot fungi; format: cell-based; settings: P. placenta, 100% growth retardation, Table 14
Protocol: as §5

[13] = system: Lentinus lepideus (L. lepideus), a brown rot fungus; assay: Agar plate method, fungus growth inhibition; format: cell-based
Protocol: as §4

[14] = system: Coniophora puteana (C. puteana), a brown rot fungus; assay: Agar plate method, fungus growth inhibition; format: cell-based
Protocol: as §4

[15] = Field Site A, listed as 0.5% (w/w) DDAC
[16] = Field Site A, listed as 1.0% (w/w) DDAC
[17] = Field Site A, listed as […] (w/w) DDAC

Compound: CCCCCCCCCC[N+](C)(C)CCCCCCCCCC.[Cl-] [Didecyldimethyl ammonium chloride, didecyldimethylammonium chloride, reference compound]
Rating after 11 Months, Decay (Decay; [15]): 9.9 ± 0.3 | Rating after 11 Months, Decay (Decay; [16]): 10 | Rating after 11 Months, Decay (Decay; [17]): 10 | Rating after 11 Months, Decay (Decay; Field Site B): 10 | Rating of treated green chestnut oak sections vs. Time (stains, molds, and fungi [1]; 2 weeks): 3 | Rating of treated green chestnut oak sections vs. Time (stains, molds, and fungi [1]; 4 weeks): 2 | Rating of treated green chestnut oak sections vs. Time (stains, molds, and fungi [1]; 5 weeks): 2 | Rating of treated green chestnut oak sections vs. Time (stains, molds, and fungi [1]; 9 weeks): 1 | Rating of treated tulip sections vs. Time (stains, molds, and fungi [2]; 1 week): 4 | Rating of treated tulip sections vs. Time (stains, molds, and fungi [2]; 3 weeks): 4 | Rating of treated tulip sections vs. Time (stains, molds, and fungi [2]; 7 weeks, listed as 0.32% Didecyldimethyl ammonium chloride): 3.5 | Rating of treated tulip sections vs. Time (stains, molds, and fungi [2]; 7 weeks, listed as 0.65% Didecyldimethyl ammonium chloride): 4 | Rating of treated tulip sections vs. Time (stains, molds, and fungi [2]; 11 weeks, listed as 0.32% Didecyldimethyl ammonium chloride): 3.5 | Rating of treated tulip sections vs. Time (stains, molds, and fungi [2]; 11 weeks, listed as 0.65% Didecyldimethyl ammonium chloride): 4 | Rating after 11 Months, Termite Attack (Termite; [15]): 9.3 ± 0.9 | Rating after 11 Months, Termite Attack (Termite; [16]): 9.9 ± 0.3 | Rating after 11 Months, Termite Attack (Termite; [17]): 8.9 ± 1.3 | Rating after 11 Months, Termite Attack (Termite; Field Site B): 10 | Rating of treated tulip sections vs. Time (stains, molds, and fungi [3]; 1 week): 4 | Rating of treated tulip sections vs. Time (stains, molds, and fungi [3]; 3 weeks, listed as 0.32% Didecyldimethyl ammonium chloride): 2 | Rating of treated tulip sections vs. Time (stains, molds, and fungi [3]; 3 weeks, listed as 0.65% Didecyldimethyl ammonium chloride): 3.5 | Rating of treated tulip sections vs. Time (stains, molds, and fungi [3]; 7 weeks): 2 | Rating of treated tulip sections vs. Time (stains, molds, and fungi [3]; 11 weeks): 2 | Rating of treated white birch sections vs. Time (stains, molds, and fungi [4]; 1 week): 4 | Rating of treated white birch sections vs. Time (stains, molds, and fungi [4]; 3 weeks): 4 | Rating of treated white birch sections vs. Time (stains, molds, and fungi [4]; 7 weeks): 3 | Rating of treated white birch sections vs. Time (stains, molds, and fungi [4]; 12 weeks): 3 | IC50 [5]: 30-50 ppm | IC50 [6]: 10-20 ppm | IC50 [7]: 5-25 ppm | IC50 [8]: 10-40 ppm

MIC ([9]; Trametes versicolor, read-out: MIC (ppm of amine oxides)): > 1000 µg/mL | MIC ([10]; Gloeophyllum trabeum, read-out: MIC (ppm of amine oxides)): > 1000 µg/mL | MIC ([11]; Chaetomium globosum, read-out: MIC (ppm of amine oxides)): > 1000 µg/mL | MIC ([12]; read-out: MIC (ppm of amine oxides)): > 1000 µg/mL | IC50 [13]: 3 ppm | IC50 [5]: 30 ppm | IC50 [6]: 20-50 ppm | IC50 [7]: 5-25 ppm | IC50 [14]: 80 ppm | IC50 [8]: 25-30 ppm
Compound: CCCCCCCCCCCCCCCC[N+](C)(C)[O-] [Hexadecyl dimethylamine oxide, hexadecyl dimethylamine oxide]
Rating of treated white birch sections vs. Time (stains, molds, and fungi [4]; 1 week): 3 | Rating of treated white birch sections vs. Time (stains, molds, and fungi [4]; 3 weeks): 2 | Rating of treated white birch sections vs. Time (stains, molds, and fungi [4]; 7 weeks): 2 | Rating of treated white birch sections vs. Time (stains, molds, and fungi [4]; 12 weeks): 2

Compound: Coco-dimethylamine oxide
MIC (ppm of amine oxides) [9]: 750 ppm | MIC (ppm of amine oxides) [10]: 500 ppm | MIC (ppm of amine oxides) [11]: >1000 ppm | MIC (ppm of amine oxides) [12]: 500-1000 ppm | Rating of treated white birch sections vs. Time (stains, molds, and fungi [4]; 1 week): 4 | Rating of treated white birch sections vs. Time (stains, molds, and fungi [4]; 3 weeks): 4 | Rating of treated white birch sections vs. Time (stains, molds, and fungi [4]; 7 weeks): 3 | Rating of treated white birch sections vs. Time (stains, molds, and fungi [4]; 12 weeks): 2 | IC50 [13]: 15 ppm | IC50 [5]: 40-50 ppm | IC50 [6]: 50-70 ppm | IC50 [7]: 3-7 ppm | IC50 [14]: 80 ppm | IC50 [8]: 10-15 ppm
